Measurements taken from patent US12509727B2, “Composition for diagnosis of Sjögren's syndrome” (THE CATHOLIC UNIVERSITY OF KOREA INDUSTRY-ACADEMIC …, priority 2017, dated 2025).

How the values were obtained:
Assay type in all cases: in vivo, human
[1] = tested on: Sjögren's syndrome dry eye patients; assay: Clinical evaluation of ocular surface parameters before and after topical corticosteroid treatment; conditions: SS DE patients, after one month topical corticosteroid with artificial tears, mean ± SD
Description: […] participated in this Example (FIG. 1): 40 patients with Sjögren's syndrome dry eye (SS DE) (78 eyes), 24 patients with non-Sjögren's syndrome dry eye (non-SS DE) (48 eyes), and 16 normal healthy subjects as controls (25 eyes). 16 patients of the 40 patients with Sjögren's syndrome dry eye were treated with topical corticosteroid (4 times per one day for 1 month, 0.1% fluoromeladone, Sam-II Pharmaceutics Co. Seoul, Korea). […] All patients with Sjögren's syndrome dry eye were diagnosed with primary Sjögren's syndrome by a rheumatologist according to the 2012 Sjögren's International Collaborative Clinical Alliance (SICCA) classification criteria. This study excluded Sjögren's syndrome patients or subjects who had been treated with disease-modifying therapies. Due to the unique prevalence of females and males found in Sjögren's syndrome (F:M=9:1), only female patients participated in the study for the prevention of the data misinterpretation. Exclusion criteria were pregnant women, nurses, contact lens wearers, tear point closure patients, persons with eye surgery within 6 months, persons with acute or chronic eye disease other than dry eye syndrome, persons with concomitant allergies, persons with eyelid abnormalities, persons with Grade 2 or higher dysfunction of the meibomian gland. This study also excluded, as a subject, persons who had received other systemic treatments or other topical treatments other than artificial tears within the past 3 months.
The following ocular surface examinations were conducted on the 82 subjects; Schirmer I test, tear film breakup time (TBUT), ocular surface staining (OSS) score, and ocular surface disease index (OSDI) questionnaire.
The Schirmer I test was performed without anesthesia before injecting the drug into the eye. The standard Schirmer's strips were placed on the side ⅓ of the lower eyelid. After 5 minutes, the strips' wetness was measured by using a millimeter scale of the strips (Eagle Vision, Memphis, TN). Tear strips were cut horizontally and placed in cryovials. They were stored frozen for further analysis. To assess TBUT, one drop of the saline without preservatives was added to a fluorescein strip (Haag-Streit, Koeniz, Switzerland). It was applied to the conjunctiva of the lower eyelid. The patients blinked their eye 3 to 4 times for a few seconds for mixing thoroughly with the dye. Then, the test was conducted by using a slit lamp with cobalt blue light. The time until the defect appeared in the stained tear film was measured and recorded as TBUT. TBUT was measured three times and the score was averaged. OSS scores including conjunctival and corneal staining scores were evaluated according to the SICCA registry ocular examination protocol. First, one drop of 2% sterile fluorescein was put on the conjunctival sac to permeate. After one minute, the corneal staining score was assessed by evaluating fluorescein staining using a slit lamp with cobalt blue filter. The punctate epithelial erosions (PEE) stained with fluorescein were calculated and scored. When there is no PEE, the score is zero. When PEE is 1 to 5, the corneal score is 1; When PEE is 6 to 30, the score is 2; When PEE exceeds 30, the score is 3. Additional points were added when there were one or more fused staining portions, when there was staining in the pupil area of the cornea, or when there were one or more filaments in any part of the cornea. The maximum available score is 6 for each cornea. In order to measure the conjunctival staining score, fluorescein was washed with the saline without preservatives. Then, one drop of 1% Lissamine green dye (Leiter's Pharmacy San Jose, California) was applied to the lower conjunctival fornix of both eyes. […]

[2] = tested on: ATG5 protein; assay: Western blotting of tears, relative concentration measurement, after corticosteroid treatment; conditions: tears of SS DE patients; level before treatment 5.06±0.31; statistically significantly decreased
Description: (§1) Tears were collected from the Schirmer strips which absorbed the tear fluid as in Example 1. In order to extract tears, the Schirmer strips were placed in tubes containing extraction buffer (NaCl 0.5 M, Tween 20 0.5% in PBS). After one hour, the strips were transferred to a 0.5 ml tube with a hole at the bottom thereof using a cannula. The tube was inserted into a larger tube (1.5 ml). It was centrifuged at 12,000 rpm for 15 minutes. The centrifugal force caused the fluid to be drawn from the strip. Thus, the tear fluid passed through the center hole at the bottom of the small tube and was collected into the external 1.5 ml tube. The tear fluid was mixed with the sample-loading buffer, heated for 10 minutes, and centrifuged. Then, the protein concentration in the clear isolate was determined by using the BCA protein assay kit (Thermo Fisher Scientific, Rockford, IL). […] The improved chemical luminescence reagent (ECL; Amersham Biosciences, Sweden) was used to detect the protein band. […]
(§2) After applying topical corticosteroids to Sjögren's syndrome dry eye patients, change in the clinical parameters was assessed as well as autodigestion marker expression. After one month with topical corticosteroid therapy with artificial tears, OSDI score, Schirmer I value, TBUT, corneal staining, conjunctival staining, and OSS score were measured as in Example 1. […]

[3] = tested on: LC3B-II/I protein ratio; assay: as above; conditions: tears of SS DE patients; level before treatment 1.87±0.10; statistically significantly decreased
Description: as §1, §2

[4] = tested on: ATG5 mRNA; assay: Real-time PCR of conjunctival epithelial cells (impression cytology) after corticosteroid treatment; conditions: conjunctival epithelial cells of SS DE patients; level before treatment 13.16±4.36; statistically significantly decreased
Description: (§3) IC was carried out 15 minutes after the last stained eye solution was permeated by using a polyethersulfone filter (Suopor 200 membrane, Pall Corporation, Port Washington, New York). The filter paper was cut in half (13×6.5 mm). The sides were attached on the upper side-nasal and the upper side-temporal bulbar conjunctiva, respectively. With 0.05% paraformaldehyde (PFA), the filter attached on the upper side-nasal conjunctiva was transferred into a tube containing 2 ml of PBS for immunostaining. The paper attached on the upper side-temporal conjunctiva was collected from the filter paper up to 3 hours for the RNA extraction.
(§4) RNAs were isolated from IC using TRIzol reagent (Gibco-Invitrogen, Grand Island, New York) according to the modified protocol (Barabino S et al., Immune response in the conjunctival epithelium of patients with dry eye. Experimental eye research 2010; 91: 524-9). […] The […] method was used for relative quantification. […]
as §2

[5] = tested on: LC3B-II mRNA; assay: as above; conditions: conjunctival epithelial cells of SS DE patients; level before treatment 12.93±4.44; statistically significantly decreased
Description: as §3, §4, §2

[6] = tested on: autodigestion marker (ATG5 and LC3B-II) in the conjunctiva; assay: Immunostaining of ATG5 and LC3B-II of conjunctiva before and after corticosteroid treatment; conditions: SS DE patients after the corticosteroid treatment; representative immunohistochemical images
Description: as §3
The IC filter paper having isolated epithelial cells was firmly pressed against a silane-coated slide (Muto Pure Chemicals Co., ltd. Tokyo, Japan). Thus, the epithelial cells were transferred onto the slide. They were used for immunofluorescence staining according to the Baudouins protocol. […]
as §2

## CC(=O)[C@@]1(O)CC[C@H]2[C@@H]3C[C@H](C)C4=CC(=O)C=C[C@]4(C)[C@@]3(F)[C@@H](O)C[C@@]21C [corticosteroid, fluoromeladone]
[1]; before treatment 2.13 ± 1.90, P 0.0018
  Conjunctival staining score (0-6), after treatment: 1.06 ± 1.70
[1]; before treatment 2.16 ± 2.22, P 0.0007
  TBUT, after treatment: 3.84 ± 1.90 s
[1]; before treatment 2.34 ± 1.66, P 0.0088
  Schirmer value, after treatment: 3.78 ± 2.41 mm
[1]; before treatment 2.78 ± 1.10, P <0.0001
  Corneal staining score (0-6), after treatment: 1.59 ± 1.21
[1]; before treatment 4.84 ± 3.08, P <0.0001
  Ocular surface staining score (0-12), after treatment: 2.53 ± 2.55
[1]; before treatment 50.19 ± 19.17, P 0.0411
  OSDI score (0-100), after treatment: 39.80 ± 17.89
[2]
  ATG5 protein (vs β-actin) in tears after corticosteroid treatment: approximately 0.88±0.07 times in change
[3]
  LC3B-II/I protein ratio in tears after corticosteroid treatment: ~1.27±0.08 times in change
[4]
  ATG5 gene encoding level after corticosteroid treatment: approximately 1.23±0.27 times in change
[5]
  LC3B-II gene encoding level after corticosteroid treatment: ~2.57±0.48 times in change
[6]
  staining spotting pattern of the autodigestion marker in the conjunctiva: normalized
